SMILES strings stand for the structures.

This assay addresses T1, X-box-binding protein 1 (Rattus norvegicus, UniProt Q9R1S4).
T1 sequence (Q9R1S4 whole entry): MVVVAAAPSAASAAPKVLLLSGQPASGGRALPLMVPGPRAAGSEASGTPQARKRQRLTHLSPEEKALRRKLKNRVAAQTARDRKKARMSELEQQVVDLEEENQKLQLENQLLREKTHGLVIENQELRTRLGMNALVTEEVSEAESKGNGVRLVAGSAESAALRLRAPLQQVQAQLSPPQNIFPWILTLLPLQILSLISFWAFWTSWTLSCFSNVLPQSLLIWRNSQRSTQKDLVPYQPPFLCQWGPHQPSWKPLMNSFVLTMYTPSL
The experiment in a line: ChEBML_1526682. An excerpt: Transactivation of XBP1 in rat IEC-6 cells after 48 hrs by dual luciferase reporter gene assay
Turning to `C/C1=C/C[C@@H](O)[C@@]2(C)CC[C@@](C(C)C)(C[C@@H](O)[C@]3(C)CC[C@H]1O3)O2`, the EC50 (commonly the midpoint of the concentration-response curve) is 340 nM.
Then `C/C1=C\CC[C@@]2(C)O[C@@H]2C[C@]2(C(C)C)CC[C@@](C)(O2)[C@H](O)CC1=O`, with 420 nM.
The same measure for `CC(C)[C@@]12CC[C@@](C)(O1)[C@H](O)CC/C(C=O)=C/CC[C@@]1(C)O[C@@H]1C2`: 1140 nM; for `C/C1=C\[C@@H](O)C[C@@]2(C)O[C@@H]2C[C@]2(C(C)C)CC[C@@](C)(O2)[C@H](O)CC1=O`: 880 nM.

The values above are taken from BindingDB's records for doi:10.1021/acs.jnatprod.5b00104 (Peking Union Medical College, 2015).
